Measured values published in patent US20040076968A1, “Method for detecting pre-disposition to hepatotoxicity” (priority 2000, published 2004).

What was measured:
UGT1A7 gene = assay: Association of UGT1A7 polymorphisms with liver function abnormality in tolcapone-treated patients (case-control genotyping); format: in vivo, human
Excerpt: Disease severity had already been controlled for by the original study inclusion criteria.
For all other single nucleotide polymorphisms (SNPs) discovery and genotyping was done by double-stranded DNA sequencing using an ABI capillary sequencer and Big Dye chemistry (ABI). The primers used to amplify all exons are shown below and were also used as sequencing primers. Publicly available genomic sequences were used as references for primer design. All polymorphisms were targeted with these pairs-of-primer sets:
Fourty nanograms of genomic DNA were PCR-amplified in 50 μl reactions using an automated PCR machine. Reaction conditions varied as follows. For the amplification of the UGT1A6-fragment conditions were as follows: 10 mM Tris pH 8.3, 50 mM KCl, 1.5 mM MgCl2, 0.2 mM of each dNTP, 0.4 μM of each primer and 1.5U Boehringer Taq Polymerase. The thermocycling protocol consisted of an initial incubation of 95° C. for 15 min. followed by 35 cycles of 94° C. for 1 min., 57° C. for 30 sec., 72° C. for 1 min., and one final extension step of 72° C. for 10 min. The UGT1A7-1 fragment was amplified using Qiagen PCR buffer with 1.5 mM MgCl2, 0.2 mM of each dNTP, 0.4 μM of each primer and 1.5U Boehringer Taq Polymerase. The thermocycling protocol was the same as for UGT1A6-fragment with one exception: the annealing temperature was 61° C. For UGT1A7-2 fragment PCR conditions were as follows: 150 mM Tris pH 8.5, 15 mM (NH4)2SO4, 3.5 mM MgCl2, 0.2 mM of each dNTP, 0.4 μM of each primer and 1.5U Qiagen Hot Start Taq Polymerase. Thermocycling was done using a touch-down PCR protocol. After an iniatial amplification of 95° C. for 10 min. followed 5 cycles of 95° C. for 1 min., 62° C. for 30 sec. (minus 0.5° C. per cycle), 72° C. for 1 min and thirty cycles of 95° C. for 1 min., 60° C. for 30 sec., 72° C. for 1 min. and a final extension step of 72° C. for 10 min. After PCR amplification fragments were purified using the Qiaquick PCR purification kit on a Biorobot 9600. Cycle sequencing was performed on an automated PCR machine using ABI Big Dye terminator chemistry according to the manufacturer's intruction with the following changes: 2.5-5 ng/100 bp of PCR product were mixed with 2 μl Big Dye terminatior mix, oligonucleotide primer concentration was 10 pmol, if necessary 5% DMSO was added to the reaction; the final reaction volume was 10 μl. Sequencing reactions were subjected to 28 cycles at 93° C. for 30 sec, 48° C. for 30 sec, and 58° C. for 120 sec., followed by an ethanol/NaOAc precipitation. After decanting the ethanol, samples were evaporated to dryness using a SpeedVac for 2 min. and were resuspended in 45 μl ultrapure water (MERCK, HPLC grade). […] were loaded on an ABI 3700 capillary sequencer using POP5 as a polymer. After sequencing, the polymorphism analyses were done using Polyphred software (licenced from University of Washington).
The patient samples were divided into two groups.
For each genotype, the following analyses were performed:
a) Analysis of the entire genotype: patients were classified according to the following three categories: homozygous 1/1 (two copies of allele 1 and no copies of allele 2), heterozygous 1/2 (one copy of allele 1 and one copy of allele 2) or homozygous 2/2 (no copies of allele 1 and two copies of allele 2). Analysis was conducted to assess whether there were differences in the proportion of case patients in each of these groups, compared with the proportion of control patients. The Cochran-Maentel-Hanszel (CMH) test was applied to the data presented in a 2-by-3 table (the two columns indicating presence or absence of liver function abnormality and the three rows indicating the three categories of the genotype).

[1] = Clinical trials for tolcapone in patients with Parkinson's disease: liver transaminases; format: in vivo, human; conditions: rare circumstances
Excerpt: There was therefore a desire to establish whether there is a correlation between the occurrence of such liver abnormalities, which are indicators of liver toxicity and certain genetic pre-dispositions.

## Cc1ccc(C(=O)c2cc(O)c(O)c([N+](=O)[O-])c2)cc1 [tolcapone]
UGT1A7 gene; UGT1A7_555 silent or Arg131Lys, Genotype Heterozygous A/C, Liver Function Abnormality Absent
  n (%) of patients: 124 (46.1%)
UGT1A7 gene; UGT1A7_555 silent or Arg131Lys, Genotype Heterozygous A/C, Liver Function Abnormality Present
  n (%) of patients: 60 (45.5%)
UGT1A7 gene; UGT1A7_555 silent or Arg131Lys, Genotype Homozygous A/A, Liver Function Abnormality Absent
  n (%) of patients: 96 (35.7%)
UGT1A7 gene; UGT1A7_555 silent or Arg131Lys, Genotype Homozygous A/A, Liver Function Abnormality Present
  n (%) of patients: 58 (43.9%)
UGT1A7 gene; UGT1A7_555 silent or Arg131Lys, Genotype Homozygous G/G, Liver Function Abnormality Absent
  n (%) of patients: 49 (18.2%)
UGT1A7 gene; UGT1A7_555 silent or Arg131Lys, Genotype Homozygous G/G, Liver Function Abnormality Present
  n (%) of patients: 14 (10.6%)
UGT1A7 gene; UGT1A7_556 Arg131Lys or Gln, Allele A Absent, Liver Function Abnormality Absent
  n (%) of patients: 49 (18.3%)
UGT1A7 gene; UGT1A7_556 Arg131Lys or Gln, Allele A Absent, Liver Function Abnormality Present
  n (%) of patients: 14 (10.6%)
UGT1A7 gene; UGT1A7_556 Arg131Lys or Gln, Allele A Present, Liver Function Abnormality Absent
  n (%) of patients: 219 (81.7%)
UGT1A7 gene; UGT1A7_556 Arg131Lys or Gln, Allele A Present, Liver Function Abnormality Present
  n (%) of patients: 118 (89.4%)
UGT1A7 gene; UGT1A7_556 Arg131Lys or Gln, Allele G Absent, Liver Function Abnormality Absent
  n (%) of patients: 96 (35.8%)
UGT1A7 gene; UGT1A7_556 Arg131Lys or Gln, Allele G Absent, Liver Function Abnormality Present
  n (%) of patients: 59 (44.7%)
UGT1A7 gene; UGT1A7_556 Arg131Lys or Gln, Allele G Present, Liver Function Abnormality Absent
  n (%) of patients: 172 (64.2%)
UGT1A7 gene; UGT1A7_556 Arg131Lys or Gln, Allele G Present, Liver Function Abnormality Present
  n (%) of patients: 73 (55.3%)
UGT1A7 gene; UGT1A7_556 Arg131Lys or Gln, Genotype Heterozygous A/G, Liver Function Abnormality Absent
  n (%) of patients: 123 (45.9%)
UGT1A7 gene; UGT1A7_556 Arg131Lys or Gln, Genotype Heterozygous A/G, Liver Function Abnormality Present
  n (%) of patients: 59 (44.7%)
UGT1A7 gene; UGT1A7_556 Arg131Lys or Gln, Genotype Homozygous A/A, Liver Function Abnormality Absent
  n (%) of patients: 96 (35.8%)
UGT1A7 gene; UGT1A7_556 Arg131Lys or Gln, Genotype Homozygous A/A, Liver Function Abnormality Present
  n (%) of patients: 44 (33.8%)
UGT1A7 gene; UGT1A7_556 Arg131Lys or Gln, Genotype Homozygous G/G, Liver Function Abnormality Absent
  n (%) of patients: 49 (18.3%)
UGT1A7 gene; UGT1A7_556 Arg131Lys or Gln, Genotype Homozygous G/G, Liver Function Abnormality Present
  n (%) of patients: 14 (10.6%)
UGT1A7 gene; UGT1A7_786 Trp208Arg, Allele G Absent, Liver Function Abnormality Absent
  n (%) of patients: 124 (46.3%)
UGT1A7 gene; UGT1A7_786 Trp208Arg, Allele G Absent, Liver Function Abnormality Present
  n (%) of patients: 46 (34.3%)
UGT1A7 gene; UGT1A7_786 Trp208Arg, Allele G Present, Liver Function Abnormality Absent
  n (%) of patients: 144 (53.7%)
UGT1A7 gene; UGT1A7_786 Trp208Arg, Allele G Present, Liver Function Abnormality Present
  n (%) of patients: 86 (65.7%)
UGT1A7 gene; UGT1A7_786 Trp208Arg, Allele T Absent, Liver Function Abnormality Absent
  n (%) of patients: 30 (11.2%)
UGT1A7 gene; UGT1A7_786 Trp208Arg, Allele T Absent, Liver Function Abnormality Present
  n (%) of patients: 26 (19.4%)
UGT1A7 gene; UGT1A7_786 Trp208Arg, Allele T Present, Liver Function Abnormality Absent
  n (%) of patients: 238 (88.8%)
UGT1A7 gene; UGT1A7_786 Trp208Arg, Allele T Present, Liver Function Abnormality Present
  n (%) of patients: 108 (80.6%)
UGT1A7 gene; UGT1A7_786 Trp208Arg, Genotype Heterozygous T/C, Liver Function Abnormality Absent
  n (%) of patients: 114 (42.5%)
UGT1A7 gene; UGT1A7_786 Trp208Arg, Genotype Heterozygous T/C, Liver Function Abnormality Present
  n (%) of patients: 62 (46.3%)
UGT1A7 gene; UGT1A7_786 Trp208Arg, Genotype Homozygous C/C, Liver Function Abnormality Absent
  n (%) of patients: 30 (11.2%)
UGT1A7 gene; UGT1A7_786 Trp208Arg, Genotype Homozygous C/C, Liver Function Abnormality Present
  n (%) of patients: 26 (19.4%)
UGT1A7 gene; UGT1A7_786 Trp208Arg, Genotype Homozygous T/T, Liver Function Abnormality Absent
  n (%) of patients: 124 (46.3%)
UGT1A7 gene; UGT1A7_786 Trp208Arg, Genotype Homozygous T/T, Liver Function Abnormality Present
  n (%) of patients: 46 (34.3%)
[1]
  effect on liver transaminase activity: reversible asymptomatic increase in liver transaminase activity
